Assay [1] concerns cell-associated HIV RNA (HIV gag RNA) in CD4+ T cells. As to the kind of experiment: Cell associated HIV RNA (caRNA) assay. The class given is cell-based, human. To be noted: CD4+ T cells treated for 48 hours. An excerpt: During the productive phase of the viral life cycle, HIV produces a large number of differentially spliced transcripts collectively termed cell-associated HIV RNA (ca-HIV RNA) within some cells that are infected. In HIV-infected individuals on suppressive antiretroviral therapy (ART), changes in the levels of caHIV RNA is an accepted surrogate measure of the efficacy of HIV latency reversal.
To measure ca-HIVRNA, peripheral blood mononuclear cells (PBMCs) are isolated from leukocytes obtained by continuous-flow leukapheresis. Total CD4^+ T cells were isolated from PBMCs by negative selection using the EasySep Human CD4^+ T cell Enrichment kit (StemCell, Vancouver, Canada) per the manufacturer's recommendations. Resting CD4^+ T cells are isolated by negative selection with an immunomagnetic column as described previously (25) and either cryopreserved immediately or maintained for two days in IMDM medium (Gibco), 10% FBS, 2 μg/mL IL-2 (Peprotech), and antiretrovirals to prevent viral expansion.
For SMACm treatment, three to five replicates of 2-5×10^6 CD4^+ T cells were treated for 48 hours at 37° C. in 1 mL of RPMI medium 1640, 10% FBS, 10 μg/mL of enfuvirtide (Sigma), and 200 nM rilpivirine. 10 nM phorbol 12-myristate 13-acetate (PMA; Sigma) with 1 μM ionomycin (Sigma) was used as a positive control for LRA activation and 0.2% DMSO vehicle was used as a negative control. Following treatment, cells were lysed and RNA and DNA were co-extracted using an AIIPrep 96 RNA/DNA kit (Qiagen, Valencia, Calif.) per the manufacturer's instructions, adjusting the volume of lysis buffer to 0.6 mL, adding an on-column DNase I treatment (Qiagen) and eluting RNA in 50 μL of water. […]
HIV absolute HIV gag RNA copies per reaction were determined using an HIV gag gBlock qPCR standard corresponding to the DNA sequence of the qPCR product (5′-[…]-3′ (SEQ ID NO: 4); Integrated DNA Technologies), and copies were normalized to cell counts as determined by bright field microscopy. […]

The next assay deals with p100/p52. As to the kind of experiment: p100/p52 Western blot (WB) assay. It counts as cell-based, human. The following applies: PBMC cells from healthy donors, 24 hrs, read-out: p100/p52 Western Blot (WB) EC50. As to the method:
Cell cultures were set up to evaluate several SMACm compounds. Frozen PBMC cells from healthy donors were thawed and plated in 2 ml deepwell plates at 2×10^6 cells/ml. Serial dilutions of each compound was carried out as a 7 fold 1:6 dilution with the starting final dose of 1000 nM. Cells were then combined with compound and place at 37° for 24 hrs. The following day cells were pelleted and placed at −80 until lysis.
In preparation for cell lysis, the frozen cell pellets and an aliquot of NP40 Cell Lysis Buffer (Invitrogen, Part #FNN0021), as well as an aliquot of 10× Protease Inhibitor Cocktail (Sigma, Part #P-2714) are thawed on ice. Once thawed, the complete lysis buffer is prepared by adding 10% final volume PI cocktail to the NP40 buffer and then adding in sufficient volume of 0.1 M PMSF (Sigma, Part #93482) and 1 M DTT (Sigma, Part #43816) to create a final concentration of 1 mM each in the complete lysis buffer. Cell lysis is then carried out by resuspending each cell pellet in 30 μL per 10^6 cells then incubating on ice for 30 minutes with vigorous vortexing every 10 minutes. The lysed cells are then centrifuged at 13K RPM for 10 minutes at 4° C. in a refrigerated microcentrifuge. The supernatants (lysates) are then transferred into new microcentrifuge tubes and either stored at −80° or utilized immediately for protein concentration and Western blot analysis.
Protein concentration for each lysate is determined using a detergent compatible Bradford assay (Pierce, Part #23246) following the manufacturer's microplate instructions.
Capillary Western analysis were performed using the ProteinSimple Jess System. A total of 1 ug of cell lysate was prepared according to the provided protocol supplied by ProteinSimple. The primary antibody for p100/p52 (Cell, Signaling #3017) is diluted 1:10 for use in the Jess system. The 12-230 kDa Jess Seperation Module capillary cartridges Separation Module (SM-W004) is used in conjunction with the Anti-Rabbit Secondary NIR conjugate (043-819). The Separation module includes prefilled plates that the samples, primary and secondary antibodies, as well as protein normalization reagent and diluents are loaded onto to perform separation and detection. Once the assay has run, the data is then analyzed utilizing the Compass software provided by ProteinSimple.
Alternatively to capillary electrophoresis, traditional immunoblot assays were carried out, 10 μg of cell lysate was loaded per well into 4-20% Tris-Glycine SDS-PAGE gels. Protein from the SDS-PAGE gels were transferred to Turbo Midi PVDF Transfer Packs (BioRad) using the “Mixed MW” protocol for one Midi Format Gel (constant 2.5 A up to 25V, for 7 minutes) of the Trans-Blot Turbo Transfer System (Bio-Rad) with premade Trans-Blot per the manufacturer's instructions. After transfer, PVDF membranes were blocked in 5% bovine serum albumin (BSA) in 1×TBS (BioRad) with 0.1% Tween-20 for 1 hour at room temperature with gentle rocking. Primary antibodies were added and incubated overnight at 4° C. (anti-p100/p52, Cell Signaling Technology #3017, 1:1000; anti-Actin-HRP conjugate, Abcam #49900, 1:30,000). Following primary staining, the membrane washed three times with 1× Tris Buffered Saline (TBS)+0.1% TWEEN® 20 for 10 minutes each wash. After washing, the membrane was incubated in 5% BSA in 1×TBS+0.1% TWEEN® 20 with the appropriate secondary antibody for 2 hours at room temperature. Following secondary stain the membrane was washed twice for 10 minutes with 1×TBS+0.1% TWEEN® 20 followed by a 10-minute wash with 1×TBS. The membrane was then patted dry with filter paper and an image was captured of the undeveloped membrane on the ChemiDoc MP Imaging System using Image Lab software (BioRad). Sufficient ECL reagent (GE Healthcare) was used to cover the membrane and a series of images were taken starting with 0.001 second and doubling to tripling the exposure time until the luminescence from the developed membrane saturated the image. […]
Background: A western blot detects proteins with antibodies after separation by electrophoresis.

pEC50: −log10 of the molar value. Like-named read-outs stand apart in the source and are kept apart here.

With `CN[C@H](C)C(=O)N[C@@H](C(=O)N1CCC[C@@H]1C(=O)N[C@@H]1c2ccccc2C[C@@H]1OCC#CC#CCO[C@@H]1Cc2ccccc2[C@H]1NC(=O)[C@H]1CCCN1C(=O)[C@H](NC(=O)[C@@H](C)NC)C1CCCCC1)C1CCCCC1` [AZD5582, reference compound], the “caRNA Lowest efficacious concentration observed” value in assay [1] is recorded as 10. Further, the pEC50 in the assay on p100/p52 is 7.20.
For the compound `CC[C@H](NC(=O)[C@H](C)NC)C(=O)N1C[C@@H](O)C[C@H]1Cc1c(-c2[nH]c3cc(F)ccc3c2C[C@@H]2C[C@H](O)CN2C(=O)[C@H](CC)NC(=O)[C@H](C)NC)[nH]c2cc(F)ccc12` [Birinapant, reference compound], in assay [1], the “caRNA Lowest efficacious concentration observed” value is given as >1000. Besides, the pEC50 in the assay on p100/p52 (Homo sapiens) was 6.00.
For `CN[C@H](C)C(=O)N[C@@H]1CCS[C@@H]2CC(C)(C)C(C(=O)N[C@@H]3CCCc4ccccc43)N2C1=O` (stereo partly drawn) [SBI-0637142], in assay [1], the “caRNA Lowest efficacious concentration observed” value is listed as >1000. The pEC50 in the assay with p100/p52 is 6.00 to 7.00.

For the origin of these results see patent US11492361B2, “Compounds useful in HIV therapy” (GlaxoSmithKline Intellectual Property Development Limited, priority 2018, dated 2022).
